Measured values: patent US20060002888A1, “Polyionenes for treating infections associated with cystic fibrosis” (Genzyme Corporation, priority 2002, published 2006)
In brackets after ≈: the same amount, converted by molar mass. Like-named read-outs stand apart in the source and are kept apart here.

Tests used:
MRSA = details: over 15 passages, published studies; cited from earlier work
P. aeruginosa [1] = details: within 11 passages, published studies; cited from earlier work
[2] = system: A-549 lung epithelial cells; assay: IC50 in A-549 lung epithelial cells; assay type: cell-based; details: Homo sapiens, A549
Procedure: (§1) Poly(trimethylene dipyridine-alt-5-oxanonane) having a molecular weight of 0.5 to 1 kDa was tested in A-549 lung epithelial cells to determine its IC50 value in comparison with tobramycin, a conventional antibiotic. In addition, the minimum inhibitory concentrations for the two compounds were determined in vitro for a number of bacterial strains and species. The results are as shown below, where all concentrations are expressed as μg/mL: […]

S. aureus = assay: Minimum inhibitory concentration in vitro (Example 26); assay type: cell-based; details: Staphylococcus aureus
Procedure: as §1

P. aeruginosa [3] = assay: as above; assay type: cell-based; details: Pseudomonas aeruginosa
Procedure: as §1

S. maltophilia = assay: as above; assay type: cell-based; details: Stenotrophomonas maltophilia
Procedure: as §1

B. cepacia = assay: as above; assay type: cell-based; details: Burkholderia cepacia
Procedure: as §1

| Molecule | Rise of the MIC (MRSA) [fold] | Rise of the MIC (P. aeruginosa [1]) [fold] | IC50 [2] [µg/mL] | MIC (S. aureus) [µg/mL] | MIC (P. aeruginosa [3]; strain G38, read-out: MIC P. aeruginosa G38) [µg/mL] | MIC (P. aeruginosa [3]; strain PA01, read-out: MIC P. aeruginosa PA01) [µg/mL] | MIC (S. maltophilia) [µg/mL] | MIC (B. cepacia) [µg/mL] |
| --- | --- | --- | --- | --- | --- | --- | --- | --- |
| CCn1cc(C(=O)O)c(=O)c2cc(F)c(N3CCNCC3)cc21 [norfloxacin] | 85 | 10 |  |  |  |  |  |  |
| NC[C@H]1O[C@H](O[C@H]2[C@H](O)[C@@H](O[C@H]3O[C@H](CO)[C@@H](O)[C@H](N)[C@H]3O)[C@H](N)C[C@@H]2N)[C@H](N)C[C@@H]1O [Tobramycin] |  |  | 5000 (≈ 10700 µM) | 0.195 (≈ 0.417 µM) | 0.39 (≈ 0.834 µM) | 0.39 (≈ 0.834 µM) | 25 (≈ 53.5 µM) | > 50 |
| gentamicin |  | 190 |  |  |  |  |  |  |
